# Values of other authors in patent US20220003741A1, “ORAL WASH FOR ORAL FLUID COLLECTION AND ANALYSIS AND METHODS OF USE THEREOF” (priority 2018, published 2022).
# Tests used:
# [1] = not given; remark: listed apart in the source
# [2] = versus aripiprazole and dehydro aripiprazole
compound,measurement,setting,value
CN1CCCC1c1cccnc1 (centres unmarked) [nicotine],time to reach the brain after inhalation,"after inhalation, crosses the blood-brain barrier",10 to 20 s
same,elimination half-life of nicotine in the body,in vivo,around two
CCCCCc1cc(O)c2c(c1)OC(C)(C)[C@@H]1CCC(C)=C[C@@H]21 [THC],fraction of THC excreted in the feces,[1]; feces,More than 55%
same,fraction of THC excreted in the urine,[1]; urine,approximately 20%
O=C(O)CCCOc1ccc2c(c1)NC(=O)CC2 [OPC-3373],water solubility compared with parent compound aripiprazole and dehydro aripiprazole,[2],much more water soluble
